According to patent US6423694B1, “Method of treating otitis media with uridine triphosphates and related compounds” (Inspire Pharmaceuticals, Inc., priority 1996, dated 2002):

Columns and labels:
otitis media = experiment: Treatment of otitis media in children (Example 1); format: in vivo, human; settings: children with otitis media; nasal drops or nasal spray twice daily, 10^-7 to 10^-2 moles/liter, with antibiotic therapy
Protocol: Uridine 5′-triphosphate (UTP) is administered to children diagnosed with otitis media (OM). UTP is administered via nasal drops or nasal spray, twice daily, for a total of 5-10 days. The concentration of UTP is in the range of 10^−7 to 10^−2 moles/liter. Treatment with UTP begins as soon as OM is diagnosed and antibiotic therapy is initiated. The length of treatment for each patient is up to one month (28 days); the preferable length of treatment is one week (7 days). Effectiveness of UTP in eliminating middle ear fluid is assessed by several methods including: pneumatic otoscopy (to diagnose fluid in the middle ear and to evaluate the status of eardrum); tympanometry (to evaluate compliance of tympanic membrane/eardrum and to estimate middle ear pressure); acoustic reflectometry (to diagnose presence of air or fluid in the middle ear); and hearing evaluation tests.

[1] = system: lung epithelial cells of cystic fibrosis patients; settings: U.S. Pat. No. 5,292,498; cited from earlier work
lung epithelial cells = settings: Boucher et al. 1995, Gheber et al. 1995; cited from earlier work

| SMILES | number of days that middle ear fluid is present (otitis media) | number of days that symptoms such as pain or hearing impairment are experienced (otitis media) | chloride and water secretion [1] | ciliary beat frequency (lung epithelial cells) |
| --- | --- | --- | --- | --- |
| O=c1ccn([C@@H]2O[C@H](COP(=O)(O)OP(=O)(O)OP(=O)(O)O)[C@@H](O)[C@H]2O)c(=O)[nH]1 [UTP, uridine 5′-triphosphate] | decrease in the number of days that middle ear fluid is present | decrease in the number of days that symptoms such as pain or hearing impairment are experienced | induce chloride and water secretion | stimulate the ciliary beat frequency |
| Nc1ncnc2c1ncn2[C@@H]1O[C@H](COP(=O)(O)OP(=O)(O)OP(=O)(O)O)[C@@H](O)[C@H]1O [ATP, adenosine 5′-triphosphate] |  |  | induce chloride and water secretion | stimulate the ciliary beat frequency |
